Test results taken from patent publication EP4682145A1, “BENZOHETEROCYCLIC COMPOUND, AND PREPARATION METHOD THEREFOR AND USE THEREOF” (Cascade Pharmaceuticals, Inc., priority 2023, dated 2024).

Columns and labels:
[1] = target: T1, human FFAR1 (GPR40) (Homo sapiens, UniProt O14842); assay: NFAT-RE-based reporter gene activity assay (Dual-Glo luciferase) for GPR40 agonistic activity in co-transfected HEK293T cells; type: cell-based; details: 4-hour treatment
T1 construct: Flag; expressed in transfected cells; host or cells: HEK293T
Method in brief: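 HEK293T cells co-transfected with human FFAR1, NFAT-RE firefly luciferase and TK-Renilla plasmids; 24 h later treated 4 h with 10 half-log compound dilutions from 1 µM. Firefly/Renilla ratio normalised to DMSO; EC50 from four-parameter fit.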

[2] = Pharmacokinetic evaluation in ICR mice (intravenous and gavage); type: in vivo; details: for CL_obs / Vss_obs / half-life: Intravenous Administration (5 mg/kg); for bioavailability: gavage 10 mg/kg versus intravenous 5 mg/kg
Procedure: The bioavailability and pharmacokinetic behavior of the compounds were evaluated in mice. 6 male ICR mice with similar body weights were selected, among which 3 mice were administered a single gavage dose of 10 mg/kg, and the other 3 mice were intravenously administered a single dose of 5 mg/kg. Blood samples were collected at 5 minutes (intravenous administration), 15 minutes, 30 minutes, 1 hour, 2 hours, 4 hours, and 7 hours after administration. The plasma samples were analyzed for concentration by LCMS/MS, and the pharmacokinetic parameters of the compounds were analyzed using the PKSolver free tool and non-compartmental analysis (NCA) software.
Experimental animals: Each compound test group included 6 healthy male ICR mice, weighing 18-25 g, purchased from Charles River, which were randomly divided into 2 groups with 3 mice each.
Preparation of formulations: A certain amount of the compound was weighed and added to 2% DMSO + 15% Solutol + 83% physiological saline to form a clear solution.
Dosage: ICR mice were fasted overnight and administered the compound at a dose of 10 mg/kg via gavage or 5 mg/kg via intravenous injection. The dosing volumes for gavage and intravenous administration were 10 mL/kg and 5 mL/kg, respectively. Uniform feeding was conducted 2 hours after administration.
Sample collection: Approximately 30 µL of blood was collected from the great saphenous vein at 5 minutes (intravenous administration), 15 minutes, 30 minutes, 1 hour, 2 hours, 4 hours, and 7 hours after administration. The blood was placed into commercially available tubes containing K2-EDTA. The blood samples were then centrifuged at 4°C and 4600 rpm for 5 minutes to obtain plasma samples. All plasma samples were rapidly frozen on dry ice and maintained at -70°C until LCMS/MS analysis was performed.
Sample preparation: 10 µL of plasma sample was aspirated and precipitated with a methanol solution containing 50 nmol/L of α-naphthoflavone (internal standard). The mixture was thoroughly mixed and centrifuged at 4°C and 14000 rpm for 5 minutes. Then, 75 µL of the supernatant was mixed with 75 µL of methanol for LCMS/MS analysis.

[3] = system: normal C57BL6/J mice; assay: Oral glucose tolerance test (OGTT) in normal C57BL6/J mice; type: in vivo; details: 1 mg/kg gavage, single dose; for AUC 0-120 minutes: blood glucose AUC
Procedure: Eighteen normal male C57BL6/J mice (8-9 weeks old) were selected and randomly divided into 3 groups based on body weight and blood glucose levels, with 6 mice in each group. On the day of the OGTT, fasting was initiated at 8:30 AM. At 11:30 AM, drug interventions were administered via gavage (vehicle control, compound 14, 1 mg/kg, and compound 169, 1 mg/kg). At 1:30 PM, glucose (2 g/kg) was administered via gavage, while the blank control group received the vehicle control orally (2% DMSO + 15% solutol + 83% DDW solution) at a dosing volume of 10 mL/kg. Blood glucose measurements during the OGTT were taken at the following time points: 0, 15, 30, 60, 90, and 120 minutes after glucose administration.
Blood glucose levels were measured at 0, 15, 30, 60, and 120 minutes after glucose administration. The area under the curve (AUC) for blood glucose over 120 minutes was calculated. [formula]
Note: BG0, BG15, BG30, BG60, BG90, and BG120 represent the blood glucose levels at 0, 15, 30, 60, 90, and 120 minutes after glucose administration, respectively.
(§1) Data were expressed as mean ± standard deviation. One-way ANOVA was employed for statistical analysis, with p < 0.05 considered statistically significant.

[4] = Tissue distribution evaluation in ICR mice; type: in vivo; details: oral gavage 5 mg/kg, 1 hour after administration
Procedure: Experimental protocol: The tissue distribution characteristics of the compounds were evaluated in mice. 2 male ICR mice with similar body weights were selected, and the compound was administered via oral gavage at a dose of 5 mg/kg. The animals were sacrificed at 1 hour, and blood, liver, and heart were collected. After sample processing, the concentration of the compounds in each matrix was analyzed by LCMS/MS, and the average values of each group were calculated to evaluate the tissue/plasma ratio of the compounds.
Experimental animals: 2 healthy male ICR mice were purchased from Charles River.
Preparation of formulations: A certain amount of the compound was weighed and added to 2% DMSO + 15% Solutol + 83% distilled water to form a clear solution.
Dosage: ICR mice were fasted overnight and administered the compound via oral gavage at a dose of 5 mg/kg. The volume of oral gavage administration was 10 mL/kg. Uniform feeding was conducted 2 hours after administration.
Sample collection: Animals were sacrificed 1 hour after administration, and blood, liver, and heart tissues were collected. The blood was placed into commercially available tubes containing K2-EDTA. The blood samples were then centrifuged at 4°C and 4600 rpm for 5 minutes to obtain plasma samples. All plasma and tissue samples were rapidly frozen on dry ice and maintained at -70°C until LCMS/MS analysis was performed.
Sample preparation: 50 µL of the plasma sample was aspirated, precipitated with methanol, thoroughly mixed, and centrifuged at 4°C and 14000 rpm for 5 minutes. Then, 75 µL of the supernatant was mixed with 75 µL of methanol for LCMS/MS analysis. Tissue samples were homogenized using methanol. After homogenization, the mixture was centrifuged at 14,000 rpm for 5 minutes at 4°C. Subsequently, 75 µL of the supernatant was mixed with 75 µL of methanol for LCMS/MS analysis.

[5] = system: normal male C57BL6/J mice; assay: In vivo hypoglycemia risk assay in fasted normal C57BL6/J mice; details: mouse, in vivo, po, 10 mg/kg
Procedure: The blank control group was orally administered with the vehicle control (2% DMO + 15% solutol + 83% DDW solution), with a dosing volume of 10 mL/kg. […] […] Data were expressed as mean ± standard deviation. One-way ANOVA was employed for statistical analysis, with p < 0.05 considered statistically significant.

[6] = system: C57BL6/J mice; assay: In vivo pharmacodynamic assay for non-alcoholic fatty liver disease (high-fat, high-cholesterol, high-fructose diet mice); details: 1 mpk oral gavage once daily for 28 days
Procedure: Normal male C57BL6/J mice ([…]) were fed a high-fat, high-cholesterol, high-fructose diet (D09100310, Research Diets) for 20 weeks. Based on body weight and biochemical data, the mice were randomly divided into groups, with 6 mice per group. The compound 169 (0.03, 0.1, and 0.6 mg/kg) was administered via oral gavage. The positive control was MGL3196 (1 mg/kg), and the blank control group consisted of mice of the same strain and age fed a normal diet for the same duration. The blank control and model control groups were given the vehicle (15% solutol + 85% DDW), totaling 6 groups. Administration was performed once daily for 28 days. After overnight fasting, on day 29 at the experimental endpoint, blood was collected from the heart after CO2 euthanasia. Serum ALT and AST biochemical indicators were measured, and liver tissue was harvested for hepatic hydroxyproline content determination.
Blood was collected using anticoagulant-free tubes, allowed to stand at room temperature for 30 minutes, and then centrifuged at 4000 rpm for 10 minutes to separate serum, which was tested by Dian Diagnostics. Approximately 50 mg of liver tissue was taken from each mouse and tested according to the hydroxyproline assay kit method (Nanjing Jiancheng, Cat. No.: A030-2-1).
as §1

[7] = mouse, plasma, po, Gavage Administration (10 mg/kg)
[8] = mouse, plasma, po, Gavage Administration (10 mg/kg), read-out: AUC0-7 h
[9] = male, ICR, mouse, plasma, po, Gavage Administration (10 mg/kg)

T1 sequence (O14842 whole entry): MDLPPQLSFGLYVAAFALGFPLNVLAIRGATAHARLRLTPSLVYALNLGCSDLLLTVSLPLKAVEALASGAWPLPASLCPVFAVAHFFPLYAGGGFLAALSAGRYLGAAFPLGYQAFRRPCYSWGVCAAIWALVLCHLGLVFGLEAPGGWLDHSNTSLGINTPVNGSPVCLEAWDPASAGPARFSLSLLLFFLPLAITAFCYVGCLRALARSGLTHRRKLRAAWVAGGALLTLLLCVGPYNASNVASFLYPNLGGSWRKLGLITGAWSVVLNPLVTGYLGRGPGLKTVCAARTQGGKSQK

Row | Compound | EC50 [1] | Efficacy (%) ([1]; class symbols) | CL_obs [2] | Vss_obs [2] | half-life ([2]; mouse, plasma) | Cmax [2, 7] | Tmax [2, 7] | AUC(0-t) at 7 h [2, 8] | bioavailability ([2]; mouse, plasma, po) | also measured
1 | COc1cccc(N2CCC(c3oc4cc([C@@H](CC(=O)O)C5CC5)ccc4c3-c3cccc(C(C)(C)C)c3)CC2)c1 [Compound 12] | 10 to 100 nM | †† (150 ≥ Efficacy (%) > 100) | 1.9 mL/min/kg | 0.52 L/kg | 5.02 h | 6580 ng/mL | 2 h | 38000 ng·h/mL | 44.6% | –
2 | COc1cccc(N2CCC(c3oc4cc([C@@H](CC(=O)O)C5CC5)ccc4c3-c3ccc(C(C)(C)C)cc3)CC2)c1 [Compound 14] | 10 to 100 nM | ††† (Efficacy (%) > 150) | – | – | – | – | – | – | – | Blood Glucose ([3]; 0 minutes after glucose (2 g/kg)): 7.58 ± 0.59 mmol/L; Blood Glucose ([3]; 15 minutes after glucose (2 g/kg)): 11.08 ± 2.04 mmol/L; Blood Glucose ([3]; 30 minutes after glucose (2 g/kg)): 9.17 ± 1.37 mmol/L; Blood Glucose ([3]; 60 minutes after glucose (2 g/kg)): 7.6 ± 1.34 mmol/L; Blood Glucose ([3]; 90 minutes after glucose (2 g/kg)): 6.52 ± 2 mmol/L; Blood Glucose ([3]; 120 minutes after glucose (2 g/kg)): 5.87 ± 1.13 mmol/L; AUC 0-120 minutes ([3]; 1 mg/kg): 941±62.00; AUC 0-120 minutes ([3]; listed as compound 14, 1 mg/kg): significantly reduced
3 | COc1cccc(N2CCC(c3oc4cc([C@@H](CC(=O)O)C5CC5)ccc4c3-c3cnn(C(C)(C)C)c3)CC2)c1 [Compound 38] | 10 to 100 nM | ††† (Efficacy (%) > 150) | 2.3 mL/min/kg | 0.405 L/kg | 2.41 h | 8600 ng/mL | 2 h | 55400 ng·h/mL | 77.4% | –
4 | COc1ccc(F)c(N2CCC(c3oc4cc([C@@H](CC(=O)O)C5CC5)ccc4c3-c3cnn(C(C)(C)C)c3)CC2)c1 [Compound 89] | 100 to 500 nM | †† (150 ≥ Efficacy (%) > 100) | 1.3 mL/min/kg | 0.546 L/kg | – | – | – | – | – | half-life ([2]; male, ICR, mouse, plasma): 5.46 h; bioavailability ([2]; male, ICR, mouse, plasma, oral): 73.7%; Cmax [2, 9]: 11100 ng/mL; Tmax [2, 9]: 2 h; AUC(0-t) ([2]; male, ICR, mouse, plasma, po, Gavage Administration (10 mg/kg), read-out: AUC0-7 h): 92200 ng·h/mL
5 | COc1ccc(F)c(N2CCC(c3oc4cc(C(CC(=O)O)C5CC5)ccc4c3-c3cccc(C(C)(C)C)c3)CC2)c1 (stereo not shown) [Compound 165] | 100 to 500 nM | ††† (Efficacy (%) > 150) | – | – | – | – | – | – | – | Plasma Concentration (ng/mL) or Tissue Concentration (ng/g): Blood [4]: 842 ng/mL; Plasma Concentration (ng/mL) or Tissue Concentration (ng/g): Heart [4]: 418 ng/g; Plasma Concentration (ng/mL) or Tissue Concentration (ng/g): Liver [4]: 1548 ng/g; Plasma Concentration (ng/mL) or Tissue Concentration (ng/g): Plasma [4]: 1290 ng/mL
6 | COc1ccc(F)c(N2CCC(c3oc4cc([C@@H](CC(=O)O)C5CC5)ccc4c3-c3cccc(C(C)(C)C)c3)CC2)c1 [Compound 166] | 10 to 100 nM | †† (150 ≥ Efficacy (%) > 100) | 1.6 mL/min/kg | 0.668 L/kg | 6.7 h | 4950 ng/mL | 4 h | 48100 ng·h/mL | 48% | –
7 | COc1ccc(Cl)cc1C(=O)NCCc1ccc(S(=O)(=O)NC(=O)NC2CCCCC2)cc1 [Glibenclamide, reference compound] | – | – | – | – | – | – | – | – | – | AUC0-120 minutes (mmol*min) [5]: 492±50.30** mmol*min
8 | CC(C)c1cc(Oc2c(Cl)cc(-n3nc(C#N)c(=O)[nH]c3=O)cc2Cl)n[nH]c1=O [MGL3196, reference compound] | – | – | – | – | – | – | – | – | – | Hepatic Hydroxyproline ([6]; liver): 173.63 ± 32.06 µg/g; Total Liver Hydroxyproline (µg/liver) ([6]; liver): 313.58±98.24 µg/liver; ALT (U/L) ([6]; serum): 140±63.06 U/L; AST (U/L) ([6]; serum): 242±67.42 U/L
9 | Cc1cc(OCCCS(C)(=O)=O)cc(C)c1-c1cccc(COc2ccc3c(c2)OC[C@H]3CC(=O)O)c1 [TAK875, reference compound] | – | – | – | – | – | – | – | – | – | Efficacy (%) ([1]; numeric values of positive controls): 65%
